Test results from the supplement of paper PMC10307832.

What was measured:
Test in all cases: relative viability (nuclei count vs DMSO), 5 days (fraction); higher = more cells survive
AT9283 + Pemetrexed = compound: O=C(Nc1c[nH]nc1-c1nc2ccc(CN3CCOCC3)cc2[nH]1)NC1CC1 [AT9283] + Nc1nc2[nH]cc(CCc3ccc(C(=O)N[C@@H](CCC(=O)O)C(=O)O)cc3)c2c(=O)[nH]1 [Pemetrexed] (partner 0.2 µM)
Method in brief: (§1)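 Cells from lung cancer lines were seeded into 1536-well plates and, one day later, dosed by pin tool. Treatments were either a single drug or a fixed dose of an anchor drug with five library-drug doses (not always all listed) in √10 steps. After 5 days, nuclei were stained in a one-step fixation (final 0.05% Triton X-100, 1% formaldehyde, 1 ug/ml Hoechst) and counted on 4× images, and relative viability is the treated-to-vehicle nuclei ratio, as the median of duplicate plates.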

Erlotinib + AZD7762 = compound: C#Cc1cccc(Nc2ncnc3cc(OCCOC)c(OCCOC)cc23)c1 [Erlotinib] + NC(=O)Nc1cc(-c2cccc(F)c2)sc1C(=O)N[C@H]1CCCNC1 [AZD7762] (partner 0.2 µM)
Method in brief: as §1

AT9283 + Tozasertib = compound: O=C(Nc1c[nH]nc1-c1nc2ccc(CN3CCOCC3)cc2[nH]1)NC1CC1 [AT9283] + Cc1cc(Nc2cc(N3CCN(C)CC3)nc(Sc3ccc(NC(=O)C4CC4)cc3)n2)n[nH]1 [Tozasertib] (partner 0.1 µM)
Method in brief: as §1

AT9283 + Vorinostat = compound: O=C(Nc1c[nH]nc1-c1nc2ccc(CN3CCOCC3)cc2[nH]1)NC1CC1 [AT9283] + O=C(CCCCCCC(=O)Nc1ccccc1)NO [Vorinostat] (partner 1 µM)
Method in brief: as §1

AT9283 + Olaparib = compound: O=C(Nc1c[nH]nc1-c1nc2ccc(CN3CCOCC3)cc2[nH]1)NC1CC1 [AT9283] + O=C(c1cc(Cc2n[nH]c(=O)c3ccccc23)ccc1F)N1CCN(C(=O)C2CC2)CC1 [Olaparib] (partner 8 µM)
Method in brief: as §1

Cell Line | relative viability (AT9283 + Pemetrexed; first compound 0.003 µM) | relative viability (AT9283 + Pemetrexed; first compound 0.03 µM) | relative viability (AT9283 + Pemetrexed; first compound 0.09487 µM) | relative viability (AT9283 + Pemetrexed; first compound 0.3 µM) | relative viability (Erlotinib + AZD7762; first compound 0.02 µM) | relative viability (Erlotinib + AZD7762; first compound 0.2 µM) | relative viability (Erlotinib + AZD7762; first compound 0.6325 µM) | relative viability (Erlotinib + AZD7762; first compound 2 µM) | relative viability (AT9283 + Tozasertib; first compound 0.003 µM) | relative viability (AT9283 + Tozasertib; first compound 0.03 µM) | relative viability (AT9283 + Tozasertib; first compound 0.09487 µM) | relative viability (AT9283 + Tozasertib; first compound 0.3 µM) | relative viability (AT9283 + Vorinostat; first compound 0.003 µM) | relative viability (AT9283 + Vorinostat; first compound 0.03 µM) | relative viability (AT9283 + Vorinostat; first compound 0.09487 µM) | relative viability (AT9283 + Vorinostat; first compound 0.3 µM) | relative viability (AT9283 + Olaparib; first compound 0.003 µM) | relative viability (AT9283 + Olaparib; first compound 0.03 µM) | relative viability (AT9283 + Olaparib; first compound 0.09487 µM) | relative viability (AT9283 + Olaparib; first compound 0.3 µM)
NCI-H1563 | 0.751 | 0.66 | 0.559 | 0.513 |  |  |  |  |  |  |  |  |  |  |  |  |  |  |  | 
HCC-366 | 0.169 | 0.2 | 0.101 | 0.067 | 0.346 | 0.258 | 0.191 | 0.0996 | 0.127 | 0.438 | 0.0615 | 0.0586 | 0.292 | 0.2 | 0.0353 | 0.0463 | 0.362 | 0.262 | 0.113 | 0.0721
SW 1573 | 0.813 | 0.302 | 0.182 | 0.121 |  |  |  |  | 0.204 | 0.192 | 0.211 | 0.112 | 0.835 | 0.211 | 0.165 | 0.133 | 0.485 | 0.159 | 0.159 | 0.14
LOU-NH91 | 0.406 | 0.385 | 0.331 | 0.351 | 0.682 | 0.692 | 0.769 | 0.684 | 0.61 | 0.391 | 0.373 | 0.388 | 0.905 | 0.552 | 0.449 | 0.432 | 0.915 | 0.774 | 0.512 | 0.441
NCI-H1299 |  |  |  |  |  |  |  |  |  |  |  |  |  |  |  |  | 0.911 | 0.657 | 0.366 | 0.316
HCC-44 | 0.629 | 0.666 | 0.564 | 0.694 | 1.01 | 1.02 | 0.984 | 0.96 | 0.94 | 0.621 | 0.294 | 0.321 | 1.07 | 1.05 | 0.571 | 0.567 | 1.01 | 0.963 | 0.724 | 0.817
NCI-H1437 | 0.306 | 0.298 | 0.264 | 0.225 | 1.01 |  |  | 0.956 | 0.426 | 0.321 | 0.215 | 0.238 | 0.833 | 0.469 | 0.312 | 0.295 | 0.616 | 0.549 | 0.3 | 0.277
H3255 | 0.544 | 0.553 | 0.46 | 0.238 | 0.794 | 0.619 | 0.516 | 0.238 | 0.664 | 0.358 | 0.2 | 0.161 | 0.818 | 0.907 | 0.733 | 0.298 | 0.553 | 0.52 | 0.545 | 0.231
Calu-6 |  |  |  |  |  |  |  |  |  |  |  |  |  |  |  |  | 0.575 | 0.228 | 0.178 | 0.197
NCI-H2085 | 0.959 | 0.9 | 0.537 | 0.441 | 0.92 |  | 0.732 | 0.454 | 0.835 | 0.832 | 0.5 | 0.387 | 0.775 | 0.755 | 0.631 | 0.305 | 0.834 | 0.772 | 0.629 | 0.292
